Laboratory results taken from patent US6673839B1, “Pharmaceutical compositions with antitumour activity” (Universita' Degli Studi di Catania, priority 1998, dated 2004).
Counter-ions that a name gives are not always drawn.

System: Yoshida tumour
Test: Chemopreventive effects on Yoshida tumour inoculation and thriving
Assay type: in vivo, Sprague-Dowley rats
Experimental: In order to elucidate the actual chemoprevention antitumour Potentialities of L-aC, 125 Sprague-Dowley rats (4 months old, mean weight: 200 g), under standard feeding and temperature conditions (25° C.), were divided in 5 groups and treated as follows:
Group 1: 25 rats were intraperitoneally treated, on alternate days for 10 days, with 25 mg of L-aC diluted in 5 ml of saline solution. On day 10 they were inoculated with Yoshida tumour.
Group 2: 25 rats were intraperitoneally treated, on alternate days for 10 days, with 25 mg of L-aC diluted in 5 ml of saline solution. On day 10 they were inoculated with Yoshida tumour. Starting from day 11, they were further treated intraperitoneally, on alternate days, with 25 mg of L-aC diluted in 5 ml of saline solution, for a further 10 days.
Group 3: 25 previously untreated rats were inoculated, on day 10, with Yoshida tumour. Starting from day 14 they were intraperitoneally treated, on alternate days, with 25 mg of L-aC diluted in 5 ml of saline solution for 10 days.
Group 4: 25 previously untreated rats were inoculated on day 10 with Yoshida tumour. On day 18 to 24 they were intraperitoneally treated, on alternate days, with 25 mg of L-aC diluted in 5 ml of saline solution for 10 days.
Group 5: 25 previously untreated rats were inoculated on day 10 with Yoshida tumour. On day 18 to 24 they were subjected to emptying, on alternate days, of 5 ml of ascitic fluid which was substituted with 50 mg of L-aC diluted in 5 ml of saline solution.
The onset and evolution of the tumour were checked by daily observation and weighing.

CC(=O)OC(CC(=O)[O-])C[N+](C)(C)C [L-aC, L-acetylcarnitine hydrochloride]
animals still alive with markedly low or even no ascites (Group 2, day 27 of observation): 3 | animals still alive (Group 3 (25 mg L-aC i.p. alternate days from day 14, inoculated day 10), day 27 of observation): 16/25 | surviving animals (Group 3, inoculated day 10, 25 mg L-aC i.p. alternate days from day 14 for 10 days, day 01 of observation): 25 | surviving animals (Group 3, inoculated day 10, 25 mg L-aC i.p. alternate days from day 14 for 10 days, day 03): 25 | surviving animals (Group 3, inoculated day 10, 25 mg L-aC i.p. alternate days from day 14 for 10 days, day 05): 25 | surviving animals (Group 3, inoculated day 10, 25 mg L-aC i.p. alternate days from day 14 for 10 days, day 07): 25 | surviving animals (Group 3, inoculated day 10, 25 mg L-aC i.p. alternate days from day 14 for 10 days, day 09): 25 | surviving animals (Group 3, inoculated day 10, 25 mg L-aC i.p. alternate days from day 14 for 10 days, day 10): 25 | surviving animals (Group 3, inoculated day 10, 25 mg L-aC i.p. alternate days from day 14 for 10 days, day 11): 25 | surviving animals (Group 3, inoculated day 10, 25 mg L-aC i.p. alternate days from day 14 for 10 days, day 14): 25 | surviving animals (Group 3, inoculated day 10, 25 mg L-aC i.p. alternate days from day 14 for 10 days, day 18): 25 | surviving animals (Group 3, inoculated day 10, 25 mg L-aC i.p. alternate days from day 14 for 10 days, day 21): 20 | surviving animals (Group 3, inoculated day 10, 25 mg L-aC i.p. alternate days from day 14 for 10 days, day 24): 18 | surviving animals (Group 3, inoculated day 10, 25 mg L-aC i.p. alternate days from day 14 for 10 days, day 27): 16 | surviving animals (Group 3, inoculated day 10, 25 mg L-aC i.p. alternate days from day 14 for 10 days, day 30): 16 | surviving animals (Group 3, inoculated day 10, 25 mg L-aC i.p. alternate days from day 14 for 10 days, day 45): 16 | ascites amount in survivors (Group 3, day 27): markedly low or even no ascites amount | animals still alive (Group 4 (25 mg L-aC i.p. alternate days day 18 to 24, inoculated day 10), day 27 of observation): 11/25 | surviving animals (Group 4, inoculated day 10, 25 mg L-aC i.p. alternate days day 18 to 24, day 01 of observation): 25 | surviving animals (Group 4, inoculated day 10, 25 mg L-aC i.p. alternate days day 18 to 24, day 03): 25 | surviving animals (Group 4, inoculated day 10, 25 mg L-aC i.p. alternate days day 18 to 24, day 05): 25 | surviving animals (Group 4, inoculated day 10, 25 mg L-aC i.p. alternate days day 18 to 24, day 07): 25 | surviving animals (Group 4, inoculated day 10, 25 mg L-aC i.p. alternate days day 18 to 24, day 09): 25 | surviving animals (Group 4, inoculated day 10, 25 mg L-aC i.p. alternate days day 18 to 24, day 10): 25 | surviving animals (Group 4, inoculated day 10, 25 mg L-aC i.p. alternate days day 18 to 24, day 11): 25 | surviving animals (Group 4, inoculated day 10, 25 mg L-aC i.p. alternate days day 18 to 24, day 14): 25 | surviving animals (Group 4, inoculated day 10, 25 mg L-aC i.p. alternate days day 18 to 24, day 18): 25 | surviving animals (Group 4, inoculated day 10, 25 mg L-aC i.p. alternate days day 18 to 24, day 21): 15 | surviving animals (Group 4, inoculated day 10, 25 mg L-aC i.p. alternate days day 18 to 24, day 24): 13 | surviving animals (Group 4, inoculated day 10, 25 mg L-aC i.p. alternate days day 18 to 24, day 27): 11 | surviving animals (Group 4, inoculated day 10, 25 mg L-aC i.p. alternate days day 18 to 24, day 30): 11 | surviving animals (Group 4, inoculated day 10, 25 mg L-aC i.p. alternate days day 18 to 24, day 45): 11 | ascites amount in survivors (Group 4, day 27): markedly low or even no ascites amount | day of observation by which all animals died (Group 5 (50 mg L-aC replacing 5 ml ascitic fluid, alternate days day 18 to 24)): ≤ 26 days | surviving animals (Group 5, inoculated day 10, 50 mg L-aC replacing 5 ml ascitic fluid alternate days day 18 to 24, day 01 of observation): 25 | surviving animals (Group 5, inoculated day 10, 50 mg L-aC replacing 5 ml ascitic fluid alternate days day 18 to 24, day 03): 25 | surviving animals (Group 5, inoculated day 10, 50 mg L-aC replacing 5 ml ascitic fluid alternate days day 18 to 24, day 05): 25 | surviving animals (Group 5, inoculated day 10, 50 mg L-aC replacing 5 ml ascitic fluid alternate days day 18 to 24, day 07): 25 | surviving animals (Group 5, inoculated day 10, 50 mg L-aC replacing 5 ml ascitic fluid alternate days day 18 to 24, day 09): 25 | surviving animals (Group 5, inoculated day 10, 50 mg L-aC replacing 5 ml ascitic fluid alternate days day 18 to 24, day 10): 25 | surviving animals (Group 5, inoculated day 10, 50 mg L-aC replacing 5 ml ascitic fluid alternate days day 18 to 24, day 11): 25 | surviving animals (Group 5, inoculated day 10, 50 mg L-aC replacing 5 ml ascitic fluid alternate days day 18 to 24, day 14): 25 | surviving animals (Group 5, inoculated day 10, 50 mg L-aC replacing 5 ml ascitic fluid alternate days day 18 to 24, day 18): 25 | surviving animals (Group 5, inoculated day 10, 50 mg L-aC replacing 5 ml ascitic fluid alternate days day 18 to 24, day 21): 8 | surviving animals (Group 5, inoculated day 10, 50 mg L-aC replacing 5 ml ascitic fluid alternate days day 18 to 24, day 24): 3 | surviving animals (Group 5, inoculated day 10, 50 mg L-aC replacing 5 ml ascitic fluid alternate days day 18 to 24, day 27): 0 | surviving animals (Group 5, inoculated day 10, 50 mg L-aC replacing 5 ml ascitic fluid alternate days day 18 to 24, day 30): 0 | surviving animals (Group 5, inoculated day 10, 50 mg L-aC replacing 5 ml ascitic fluid alternate days day 18 to 24, day 45): 0 | general condition of surviving animals (day 45 of observation): good health | deaths during further observation (survivors, further 6 weeks): no deaths occurred
